The IC50 is the point on the concentration scale where inhibition reaches its midpoint. A low value points to greater potency in that assay.

Consider one compound from patent publication US20180251431A1 (VERTEX PHARMACEUTICALS INCORPORATED, priority 2016, published 2018).

This experiment concerns ALD patient B-lymphocytes. Nature of the experiment: Reduction in C26:0 LPC in ALD patient B-lymphocytes in vitro. It is filed as cell-based. To be noted: Homo sapiens, Lymphocyte, half maximal reduction in C26:0 LPC. How it is done: Lysophosphatidylcholine (LPC) VLCFA were generated from straight chain VLCFA (SC-VLCFA) and were used clinically for newborn screening (Vogel et al., Mol. Genet. Metab. (2015) 114(4):599-603). In vitro efficacy studies were performed by measuring LPC VLCFA level (measured as LPC synthesis) in various cell lines, specifically in 1) human HEK cells, 2) patient derived cells, and 3) human microglia, which are disease relevant CNS cells. Compound 87's dose response relationships and IC50 values were measured in HEK cells, primary patient fibroblasts, immortalized patient lymphocytes, and a human microglial cell line. To measure LPC VLCFA synthesis, the foregoing cells were grown in the presence of ^13C labeled acetate (13C Labeled sodium acetate; Sigma Aldrich #282014) and Compound 87 (prepared in DMSO) for about 48 hours. Primary patient fibroblasts and immortalized primary patient lymphocytes were acquired from the Coriell Cell Repository at the Coriell Institute for Medical Research.
Immortalized primary patient lymphocytes cell lines (cell lines GM13496, GM13497, and GM04674) were obtained from the Coriell Cell Repository at the Coriell Institute for Medical Research. Lymphocytes were cultured and plated at a desired cell density, such as 1×10^5 cells/well. […] The plate was sealed with a plate tape and put at −80° C. for further VLCFA extraction and VLCFA quantitation on LC-MS, as described below.
VLCFA Extraction and Quantitation on LCMS:
Treated cells were transferred to a polypropylene v-bottom plate and then centrifuged at 1690×g for 10 minutes. […] The plates were then sealed with pierceable capmats (Micronic MP53017) and stored at −20° C. until further analyzed using UPHLC/Mass Spectrometry Readout, as described above in example 2.1, which measured the integration of ^13C into lysophosphatidylcholine (LPC) indicated fatty acid elongation. Specifically, C16:0, C18:0, C20:0, C22:0, C24:0, and C26:0 LPC levels were measured via mass spectroscopy as described above and IC50 values indicated half maximal reduction in C26:0 LPC levels.

`O=C(Nc1ccn(-c2ccnc(F)c2)n1)C1(c2ccccc2F)CC1` [Compound 87, 1-(2-fluorophenyl)-N-[1-(2-fluoro-4-pyridyl)pyrazol-3-yl]cyclopropanecarboxamide]: the IC50 runs as follows: (Patient Lymphocyte (CALD)) 15 nM; (Patient Lymphocyte (Het 1)) 5 nM; (Patient Lymphocyte (Het 2)) 9 nM.
